≈ marks a conversion by molar mass, not a printed value. Where “and” joins values, the source holds several entries; their conditions need not be identical. Equal values may be shown once.
Assays:
[1] = Gibbs free energy for photoinduced electron transfer (equation 6); assay type: physicochemical; details: for ΔGeT (Singlet), Gibbs free energy for PeT: PeT from chromanol to singlet excited state; for ΔGeT (Triplet), Gibbs free energy for PeT: PeT from chromanol to triplet excited state, endergonic
Text: Consistent with quenching of the singlet via PeT from the chromanol segment, the Gibbs free energy for photoinduced electron transfer (ΔGeT^0) was exergonic for compounds 7 and 8, in the range of 0.4 eV (see Table 3).
Based on these calculations ΔGeT^0 for PeT from the chromanol to the triplet excited state of 3-6 was endergonic, ca. 0.27 eV, accounting for the small intermolecular rate constant of quenching measured for these compounds in the presence of either PMHC or trolox, and for the long triplet decay rate constant kT recorded for compound 8. Importantly, the efficiency of PeT also relies in the distance between the trap segment and the photosensitizers a factor that may additionally contribute to the differences observed between compound 7 (methylene linker) and compound 8 (ester linker).

[2] = ^1O2 quantum yield and lifetime, ^1O2 phosphorescence at 1270 nm (direct method); assay type: physicochemical; details: for ΦΔ^D (singlet oxygen quantum yield, direct): ^1O2 phosphorescence at 1270 nm, air equilibrated acetonitrile
Experimental: The generation of singlet oxygen and its lifetime were determined from ^1O2 phosphorescence decay curves recorded at 1270 nm upon excitation with a 532 nm Nd:YAG laser. A total of 3 laser shots were applied to acquire a trace. […] Quantum yield of ^1O2 production (φΔ^D) were calculated comparing the intensity of ^1O2 phosphorescence at 1270 nm for the corresponding photosensitizer with that recorded for Rose Bengal (φΔ=0.54).^81

[3] = Laser flash photolysis: triplet excited state decay and quenching; assay type: physicochemical; details: for kq (triplet quenching rate constant) Q = PMHC: Ar saturated acetonitrile; for Triplet decay rate constant kT: T-T absorption at 430 nm or 550 nm, argon saturated solutions; for kT (triplet decay rate constant) Air equilibrated / kT (triplet decay rate constant) Argon Purged / kq (triplet quenching rate constant) Q = ^3O2: acetonitrile; for kq (triplet quenching rate constant) Q = ^3O2: calculated with oxygen solubility 2.42 mM
Experimental: The 500 mJ/pulse laser output was attenuated yielding 10 mJ laser pulses of 6 ns in duration. Samples were prepared in acetonitrile. The final absorbance of the BODIPY dyes was 0.1. The concentration was kept low to avoid triplet-triplet annihilation. Each sample was de-oxygenated by purging with argon gas for at least 30 min. Quartz cells containing 10×10 mm path length were used. The decay of the BODIPYs was monitored between 420-440 and 520-550 nm (depending the BODIPY) following the laser excitation. Samples were irradiated with a total of 6 laser shots to acquire the temporal evolution of ΔOD.
A second layer of control was subsequently tested via LFP studies, to monitor the extent to which the trap segment deactivates the triplet excited state of the photosensitizes. […] The two quenchers emulate the trap segments utilized in 7 and 8, respectively.

[4] = tested on: E. coli ATCC 25922; test: Antibacterial photodynamic inactivation, regular vs hydrogen peroxide stressed bacteria (CFU counts); assay type: cell-based
Experimental: (§1) The microorganism used for this study is E. coli ATCC 25922. Stock cultures were preserved at −70° C. using glycerol 10% (v/v) as the cryoprotectant, and the strain was grown in Luria Bertania broth (LB). Bacterial culture was prepared inoculating a single colony from a pure culture. After overnight incubation at 37° C. for 18 h, the culture reached a density of approximately 1×10^9 CFU/mL and it was diluted to 10^6 CFU/mL.
At the end of the irradiation time, 100 μL aliquots were placed in 96 wells from each tube and serially diluted 10-fold in PBS to obtain dilutions of 10^1 to 10^4 fold, in addition to the original concentration, on agar plates to determine CFU. Viability counts were performed at 0 and 1 hour in either dark or light conditions from each dilution, 10 μL aliquots were plated on LB agar. Plates were streaked in triplicate and incubated for 18 h at 37° C. Each experiment was performed at least three times on different days.
To stress the cells we utilized hydrogen peroxide, known to stimulate ROS production in Gram-negative cells.^79,80 We incubated bacteria from the E. coli strain (10^6 colony forming units (CFU)/mL) with 500 nM hydrogen peroxide for 2 hours at 37° C. Following precipitation and resuspension of this bacteria in media with no H2O2, we added compound 7. In parallel, compound 7 was also added to bacteria that were not exposed to H2O2.

[5] = Intermolecular quenching of ^1O2 phosphorescence by chromanol rings; assay type: physicochemical; details: ^1O2 generated upon irradiation of compound 5, air equilibrated acetonitrile
Text: To test whether 7 is equally efficient at deactivating ^1O2 as α-tocopherol, we generated ^1O2 upon irradiation of compound 5 and monitored the ^1O2 phosphorescence lifetime in the presence of increasing amounts of either 7 or PMHC (an α-tocopherol analogue lacking the phytyl tail).

[6] = tested on: clinical biofilm-producing methicillin-resistant Staphylococcus aureus (MRSA); test: Photodynamic inactivation of MRSA with ciprofloxacin as stressor; assay type: cell-based
Text: The strain was a clinical biofilm-producing methicillin-resistant Staphylococcus aureus (MRSA). […] Samples “without exposure to light” were kept wrapped with aluminum foil. Samples “with exposure to light” were irradiated with a LED panel having the following characteristics: 1.6 mW/cm^2 power output with a maxima (centered) at 520 nm and a full width at half maximum (FWHM) of 31 nm. The LED panel consisted of 5 lamps and was placed 10 cm from the sample.

[7] = tested on: E. coli ATCC 25922; test: Photodynamic minimal inhibitory concentration (PD-MIC); assay type: cell-based; details: Escherichia coli
Experimental: as §1
We carried out PDI in vitro studies with E. coli. Cells (10^6 CFU/mL) were incubated with 2-fold diluted solutions of compounds 7 and 9 (activated form of 7) in buffer PBS and LB at a proportion of 70:30% (v/v), to obtain concentrations between 40-0.078 μM. Stock solutions of BODIPY 7 and 9 (400 μM) were prepared in acetonitrile. […] PD-MIC was 40 μM for compounds 7 and 9 in dark conditions. Under light irradiation the PD-MIC was 40 μM and 10 μM for 7 and 9 respectively.

| Structure (SMILES) | ΔGeT (Singlet), Gibbs free energy for PeT [1] [eV] | ΔGeT (Triplet), Gibbs free energy for PeT [1] [eV] | ΦΔ^D (singlet oxygen quantum yield, direct) [2] | photodegradation ([2]; under 532 nm irradiation, presumably via photooxidation) | kq (triplet quenching rate constant) Q = PMHC [3] | Triplet decay rate constant kT [3] [s⁻¹] | kT (triplet decay rate constant) Air equilibrated [3] | kT (triplet decay rate constant) Argon Purged [3] | kq (triplet quenching rate constant) Q = ^3O2 [3] | ^1O2 generation ([2]; freshly prepared solutions) | colony forming units after irradiation, stressed cells ([4]; E. coli incubated with 500 nM hydrogen peroxide 2 h, 1 h irradiation 2.6 mW/cm^2, 520 nm) | MIC ([4]; Escherichia coli, ATCC25922, 7 activated in the stressed bacterial suspension (500 nM hydrogen peroxide), 9 pre-activated with dicumyl peroxide, 1 hour, read-out: PD-MIC) [µM] | colony forming units, dark controls ([4]; in the dark, 7 with or without H2O2) | colony forming units after irradiation, non-stressed cells ([4]; no H2O2, 1 h irradiation 2.6 mW/cm^2, 520 nm) | singlet oxygen quenching rate constant kq [5] [M⁻¹ s⁻¹] | colony forming units upon prolonged illumination, single agent ([6]; light 0 to 60 minutes, 1.6 mW/cm^2, 520 nm, ciprofloxacin 1 microgram per milliliter only or Br2B-PMHC 10 micromolar only) | colony forming units upon illumination in the presence of ciprofloxacin ([6]; light, 1 microgram per milliliter ciprofloxacin and 5 or 10 micromolar Br2B-PMHC) | MIC ([7]; ATCC25922, light or radiation study, under light irradiation) [µM] | MIC ([7]; ATCC25922, dark conditions) [µM] | triplet-triplet absorption ([3]; in contrast to precursor 4) |
| --- | --- | --- | --- | --- | --- | --- | --- | --- | --- | --- | --- | --- | --- | --- | --- | --- | --- | --- | --- | --- |
| CC1=C(I)C(C)=[N+]2C1=C(C)c1c(C)c(I)c(C)n1[B-]2(F)F [Compound 3, 2,6-diiodo-1,3,5,7,8-pentamethyl-pyrromethene fluoroborate] | −0.37 | 0.262 | 0.81 and 0.81 ± 0.02 | photodegrade at a slightly larger pace than 5 | 1.20 ± 0.05 × 10^8 M^−1s^−1 | 17000 | 4.35 ± 0.02 × 10^6 s^−1 | 1.68 ± 0.02 × 10^4 s^−1 | 1.82 ± 0.03 × 10^9 M^−1s^−1 |  |  |  |  |  |  |  |  |  |  |  |
| CC1=C(Br)C(C)=[N+]2C1=C(C)c1c(C)c(Br)c(C)n1[B-]2(F)F [Compound 4, 2,6-dibromo-1,3,5,7,8-pentamethyl-pyrromethene fluoroborate] | −0.38 | 0.282 | 0.72 ± 0.02 |  | 1.29 ± 0.04 × 10^8 M^−1s^−1 | 27000 | 4.55 ± 0.03 × 10^6 s^−1 | 2.70 ± 0.02 × 10^4 s^−1 | 1.91 ± 0.02 × 10^9 M^−1s^−1 |  |  |  |  |  |  |  |  |  |  |  |
| CC(=O)OCC1=C2C(C)=C(I)C(C)=[N+]2[B-](F)(F)n2c(C)c(I)c(C)c21 [Compound 5, 8-Acetoxymethyl-2,6-diiodo-1,3,5,7-tetramethyl Pyrromethene Fluoroborate] | −0.4 | 0.269 | 0.98 and 0.98 ± 0.03 |  | 3.95 ± 0.07 × 10^8 M^−1s^−1 | 17000 | 7.14 ± 0.04 × 10^6 s^−1 | 1.64 ± 0.02 × 10^4 s^−1 | 3.01 ± 0.01 × 10^9 M^−1s^−1 |  |  |  |  |  |  |  |  |  |  |  |
| CC(=O)OCC1=C2C(C)=C(Br)C(C)=[N+]2[B-](F)(F)n2c(C)c(Br)c(C)c21 [Compound 6, 8-Acetoxymethyl-2,6-dibromo-1,3,5,7-tetramethyl Pyrromethene Fluoroborate] | −0.43 | 0.287 | 0.84 ± 0.02 |  | 2.23 ± 0.05 × 10^8 M^−1s^−1 | 27000 | 6.67 ± 0.04 × 10^6 s^−1 | 2.72 ± 0.03 × 10^4 s^−1 | 2.80 ± 0.02 × 10^9 M^−1s^−1 |  |  |  |  |  |  |  |  |  |  |  |
| CC1=C(Br)C(C)=[N+]2C1=C(CC1(C)CCc3c(C)c(O)c(C)c(C)c3O1)c1c(C)c(Br)c(C)n1[B-]2(F)F (centres unmarked) [Compound 7, 8-((6-Hydroxy-2,5,7,8-tetramethylchroman-2-yl)-methyl)-2,6-dibromo-1,3,5,7-tetramethyl] |  |  |  |  |  |  |  |  |  | no ^1O2 generation | drastic drop in colony forming units | 10 (≈ 6.24 µg/mL) | no effect in the CFU | No inactivation was observed | 2e+08 | no observed reduction in colony forming units | clear reduction in colony forming units | 40 (≈ 25 µg/mL) | 40 (≈ 25 µg/mL) | unable to detect any triplet-triplet absorption |

— patent publication US9969755B2, “Photodynamic therapy photosensitizers” (The Royal Institution for the Advancement of …, priority 2016, dated 2018)
